Measured values reported in ChEMBL document CHEMBL1201861, “Genomics of Drug Sensitity in Cancer screening data, Wellcome Trust Sanger Institute”.

Columns and labels:
Experiment in all cases: cells
[1] = test system: EW-3; assay type: functional, cell-based, Homo sapiens; conditions: Homo sapiens, EW-3;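 further: cell viability assay read-out, IC50 reflects inhibition of growth of the EW-3 cells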
Description: SANGER: Inhibition of human EW-3 cell growth in a cell viability assay.

[2] = test system: GT3TKB; assay type: functional, cell-based, Homo sapiens; conditions: Homo sapiens, GT3TKB;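 further: growth inhibition of the cell line, read out with a cell viability assay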
Description: SANGER: Inhibition of human GT3TKB cell growth in a cell viability assay.

[3] = test system: RXF 393; assay type: functional, cell-based, Homo sapiens; conditions: Homo sapiens, RXF 393;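 further: growth inhibition of human RXF 393 cells, read out with a cell viability assay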
Description: SANGER: Inhibition of human RXF393 cell growth in a cell viability assay.

[4] = test system: SBC-1; assay type: functional, cell-based, Homo sapiens; conditions: Homo sapiens, SBC-1;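 further: cell viability assay measuring growth inhibition of the SBC-1 cell line, IC50 being the concentration that halves growth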
Description: SANGER: Inhibition of human SBC-1 cell growth in a cell viability assay.

[5] = test system: CTB-1; assay type: functional, cell-based, Homo sapiens; conditions: Homo sapiens, CTB-1
Description: SANGER: Inhibition of human CTB-1 cell growth in a cell viability assay.

[6] = test system: P30-OHK; assay type: functional, cell-based, Homo sapiens; conditions: Homo sapiens, P30-OHK;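 further: growth inhibition of the P30-OHK cell line, read out with a cell viability assay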
Description: SANGER: Inhibition of human P30-OHK cell growth in a cell viability assay.

[7] = test system: EW-13; assay type: functional, cell-based, Homo sapiens; conditions: Homo sapiens, EW-13; read-out: IC50;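 further: growth inhibition of EW-13 cells, read out with a cell viability assay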
Description: SANGER: Inhibition of human EW-13 cell growth in a cell viability assay.

[8] = test system: A3-KAW; assay type: functional, cell-based, Homo sapiens; conditions: Homo sapiens, A3-KAW;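 further: growth inhibition of human A3-KAW cells, read out with a cell viability assay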
Description: SANGER: Inhibition of human A3-KAW cell growth in a cell viability assay.

[9] = test system: SK-NEP-1; assay type: functional, cell-based, Homo sapiens; conditions: Homo sapiens, SK-NEP-1;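 further: growth inhibition of human SK-NEP-1 cells, read out by a cell viability assay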
Description: SANGER: Inhibition of human SK-NEP-1 cell growth in a cell viability assay.

[10] = test system: OS-RC-2; assay type: functional, cell-based, Homo sapiens; conditions: Homo sapiens, OS-RC-2;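 further: growth inhibition of human OS-RC-2 cells, measured by a cell viability assay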
Description: SANGER: Inhibition of human OS-RC-2 cell growth in a cell viability assay.

[11] = test system: COLO-684; assay type: functional, cell-based, Homo sapiens; conditions: Homo sapiens, COLO-684
Description: SANGER: Inhibition of human COLO-684 cell growth in a cell viability assay.

[12] = test system: ML-2; assay type: functional, cell-based, Homo sapiens; conditions: Homo sapiens, ML-2;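 further: growth inhibition of ML-2 cells, measured with a cell viability readout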
Description: SANGER: Inhibition of human ML-2 cell growth in a cell viability assay.

[13] = test system: OVCAR-4; assay type: functional, cell-based, Homo sapiens; conditions: Homo sapiens, OVCAR-4;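 further: growth inhibition of human OVCAR-4 cells, measured with a cell viability assay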
Description: SANGER: Inhibition of human OVCAR-4 cell growth in a cell viability assay.

[14] = test system: NOS-1; assay type: functional, cell-based, Homo sapiens; conditions: Homo sapiens, NOS-1;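 further: growth inhibition of the human NOS-1 cell line, read out with a cell viability assay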
Description: SANGER: Inhibition of human NOS-1 cell growth in a cell viability assay.

[15] = test system: SHP77; assay type: functional, cell-based, Homo sapiens, SHP-77; conditions: Homo sapiens, SHP77;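 further: growth inhibition of human SHP-77 cells measured by a cell viability assay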
Description: SANGER: Inhibition of human SHP-77 cell growth in a cell viability assay.

[16] = test system: CAS-1; assay type: functional, cell-based, Homo sapiens; conditions: Homo sapiens, CAS-1;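 further: growth inhibition of CAS-1 cells, measured with a cell viability assay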
Description: SANGER: Inhibition of human CAS-1 cell growth in a cell viability assay.

[17] = test system: DSH1; assay type: functional, cell-based; conditions: Homo sapiens;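 further: growth inhibition of human DSH1 cells, measured with a cell viability readout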
Description: SANGER: Inhibition of human DSH1 cell growth in a cell viability assay.

[18] = test system: JAR; assay type: functional, cell-based, Homo sapiens; conditions: Homo sapiens, JAR;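 further: growth inhibition of human JAR cells determined with a cell viability assay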
Description: SANGER: Inhibition of human JAR cell growth in a cell viability assay.

[19] = test system: U-266; assay type: functional, cell-based, Homo sapiens; conditions: Homo sapiens, U-266
Description: SANGER: Inhibition of human U-266 cell growth in a cell viability assay.

[20] = test system: GCIY; assay type: functional, cell-based, Homo sapiens; conditions: Homo sapiens, GCIY;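 further: growth inhibition of the human GCIY cell line, read out by a cell viability assay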
Description: SANGER: Inhibition of human GCIY cell growth in a cell viability assay.

[21] = test system: L-363; assay type: functional, cell-based, Homo sapiens; conditions: Homo sapiens, L-363
Description: SANGER: Inhibition of human L-363 cell growth in a cell viability assay.

[22] = test system: NCI-H446; assay type: functional, cell-based, Homo sapiens; conditions: Homo sapiens, NCI-H446;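 further: growth inhibition of NCI-H446 cells determined by a cell viability assay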
Description: SANGER: Inhibition of human NCI-H446 cell growth in a cell viability assay.

[23] = test system: A4-Fuk; assay type: functional, cell-based, Homo sapiens; conditions: Homo sapiens, A4-Fuk;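 further: growth inhibition of A4-Fuk cells, read out by a cell viability assay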
Description: SANGER: Inhibition of human A4-Fuk cell growth in a cell viability assay.

[24] = test system: BE-13; assay type: functional, cell-based, Homo sapiens; conditions: Homo sapiens, BE-13;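 further: growth inhibition of human BE-13 cells, measured with a cell viability assay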
Description: SANGER: Inhibition of human BE-13 cell growth in a cell viability assay.

[25] = test system: NB10; assay type: functional, cell-based, Homo sapiens; conditions: Homo sapiens, NB10;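 further: growth inhibition of NB10 cells, read out by a cell viability assay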
Description: SANGER: Inhibition of human NB10 cell growth in a cell viability assay.

[26] = test system: TGBC1TKB; assay type: functional, cell-based, Homo sapiens; conditions: Homo sapiens, TGBC1TKB;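 further: growth inhibition of TGBC1TKB cells, read out by a cell viability assay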
Description: SANGER: Inhibition of human TGBC1TKB cell growth in a cell viability assay.

[27] = test system: LU-139; assay type: functional, cell-based, Homo sapiens; conditions: Homo sapiens, LU-139
Description: SANGER: Inhibition of human LU-139 cell growth in a cell viability assay.

[28] = test system: JVM-2; assay type: functional, cell-based, Homo sapiens; conditions: Homo sapiens, JVM-2;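 further: growth inhibition of JVM-2 cells determined by a cell viability assay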
Description: SANGER: Inhibition of human JVM-2 cell growth in a cell viability assay.

[29] = test system: LB1047-RCC; assay type: functional, cell-based, Homo sapiens; conditions: Homo sapiens, LB1047-RCC;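 further: inhibition of cell growth, determined with a cell viability assay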
Description: SANGER: Inhibition of human LB1047-RCC cell growth in a cell viability assay.

[30] = test system: IST-MES1; assay type: functional, cell-based, Homo sapiens; conditions: Homo sapiens, IST-MES1;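 further: growth inhibition of IST-MES1 cells, measured with a cell viability assay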
Description: SANGER: Inhibition of human IST-MES1 cell growth in a cell viability assay.

[31] = test system: HAL-01; assay type: functional, cell-based, Homo sapiens; conditions: Homo sapiens, HAL-01;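 further: growth inhibition of human HAL-01 cells, read out with a cell viability assay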
Description: SANGER: Inhibition of human HAL-01 cell growth in a cell viability assay.

[32] = test system: NMC-G1; assay type: functional, cell-based, Homo sapiens; conditions: Homo sapiens, NMC-G1;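 further: growth inhibition of the NMC-G1 cell line, measured with a cell viability read-out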
Description: SANGER: Inhibition of human NMC-G1 cell growth in a cell viability assay.

[33] = test system: MC116; assay type: functional, cell-based, Homo sapiens; conditions: Homo sapiens, MC116;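 further: growth inhibition of MC116 cells, read out with a cell viability assay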
Description: SANGER: Inhibition of human MC116 cell growth in a cell viability assay.

[34] = test system: SK-N-FI; assay type: functional, cell-based, Homo sapiens; conditions: Homo sapiens, SK-N-FI;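 further: cell viability assay measuring growth inhibition of human SK-N-FI cells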
Description: SANGER: Inhibition of human SK-N-FI cell growth in a cell viability assay.

[35] = test system: SNU1; assay type: functional, cell-based, Homo sapiens; conditions: Homo sapiens, SNU1;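 further: growth inhibition of human NCI-SNU-1 cells, measured with a cell viability assay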
Description: SANGER: Inhibition of human NCI-SNU-1 cell growth in a cell viability assay.

[36] = test system: LAMA-84; assay type: functional, cell-based, Homo sapiens; conditions: Homo sapiens, LAMA-84;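 further: growth inhibition of LAMA-84 cells, read out with a cell viability assay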
Description: SANGER: Inhibition of human LAMA-84 cell growth in a cell viability assay.

[37] = test system: SW 962; assay type: functional, cell-based, Homo sapiens; conditions: Homo sapiens, SW 962;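 further: growth inhibition of human SW962 cells, read out by a cell viability assay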
Description: SANGER: Inhibition of human SW962 cell growth in a cell viability assay.

[38] = test system: NCI-H82; assay type: functional, cell-based, Homo sapiens; conditions: Homo sapiens, NCI-H82;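 further: growth inhibition of NCI-H82 cells, measured with a cell viability readout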
Description: SANGER: Inhibition of human NCI-H82 cell growth in a cell viability assay.

[39] = test system: ES4; assay type: functional, cell-based, Homo sapiens; conditions: Homo sapiens, ES4;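 further: growth inhibition of human ES4 cells, read out by a cell viability assay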
Description: SANGER: Inhibition of human ES4 cell growth in a cell viability assay.

[40] = test system: HCE-T; assay type: functional, cell-based, Homo sapiens; conditions: Homo sapiens, HCE-T;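 further: cell viability assay read-out, reporting inhibition of HCE-T cell growth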
Description: SANGER: Inhibition of human HCE-T cell growth in a cell viability assay.

[41] = test system: 697; assay type: functional, cell-based, Homo sapiens; conditions: Homo sapiens
Description: SANGER: Inhibition of human 697 cell growth in a cell viability assay.

[42] = test system: KE-37; assay type: functional, cell-based, Homo sapiens; conditions: Homo sapiens, KE-37;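 further: growth inhibition of KE-37 cells, read out with a cell viability assay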
Description: SANGER: Inhibition of human KE-37 cell growth in a cell viability assay.

[43] = test system: RKO; assay type: functional, cell-based, Homo sapiens; conditions: Homo sapiens, RKO;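 further: growth inhibition of human RKO cells, read out with a cell viability assay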
Description: SANGER: Inhibition of human RKO cell growth in a cell viability assay.

[44] = test system: NCI-H526; assay type: functional, cell-based, Homo sapiens; conditions: Homo sapiens, NCI-H526;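 further: growth inhibition of the human NCI-H526 cell line, measured by a cell viability assay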
Description: SANGER: Inhibition of human NCI-H526 cell growth in a cell viability assay.

[45] = test system: ATN-1; assay type: functional, cell-based, Homo sapiens; conditions: Homo sapiens, ATN-1;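 further: growth inhibition of human ATN-1 cells, read out with a cell viability assay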
Description: SANGER: Inhibition of human ATN-1 cell growth in a cell viability assay.

[46] = test system: DJM-1; assay type: functional, cell-based, Homo sapiens; conditions: Homo sapiens, DJM-1;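 further: growth inhibition of human DJM-1 cells, read out by a cell viability assay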
Description: SANGER: Inhibition of human DJM-1 cell growth in a cell viability assay.

[47] = test system: TK-10; assay type: functional, cell-based, Homo sapiens; conditions: Homo sapiens, TK-10;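 further: growth inhibition of TK-10 cells, read out in a cell viability assay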
Description: SANGER: Inhibition of human TK10 cell growth in a cell viability assay.

[48] = test system: KURAMOCHI; assay type: functional, cell-based, Homo sapiens; conditions: Homo sapiens, KURAMOCHI;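 further: growth inhibition of KURAMOCHI cells, read out with a cell viability assay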
Description: SANGER: Inhibition of human KURAMOCHI cell growth in a cell viability assay.

[49] = test system: NCI-H747; assay type: functional, cell-based, Homo sapiens; conditions: Homo sapiens, NCI-H747;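 further: growth inhibition of human NCI-H747 cells, read out by a cell viability assay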
Description: SANGER: Inhibition of human NCI-H747 cell growth in a cell viability assay.

[50] = test system: EW-1; assay type: functional, cell-based, Homo sapiens; conditions: Homo sapiens, EW-1;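 further: growth inhibition of the human EW-1 cell line, read out by a cell viability assay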
Description: SANGER: Inhibition of human EW-1 cell growth in a cell viability assay.

NC(=O)c1ccc(N(C(N)=O)c2c(F)cccc2F)nc1-c1ccc(F)cc1F [VX-702]
IC50 [1]: 666 nM
IC50 [2]: > 2000 nM
IC50 [3]: > 2000 nM
IC50 [4]: 236 nM
IC50 [5]: > 2000 nM
IC50 [6]: > 2000 nM
IC50 [7]: > 2000 nM
IC50 [8]: > 2000 nM
IC50 [9]: > 2000 nM
IC50 [10]: > 2000 nM
IC50 [11]: > 2000 nM
IC50 [12]: 227 nM
IC50 [13]: > 2000 nM
IC50 [14]: > 2000 nM
IC50 [15]: > 2000 nM
IC50 [16]: > 2000 nM
IC50 [17]: > 2000 nM
IC50 [18]: > 2000 nM
IC50 [19]: > 2000 nM
IC50 [20]: > 2000 nM
IC50 [21]: > 2000 nM
IC50 [22]: > 2000 nM
IC50 [23]: > 2000 nM
IC50 [24]: > 2000 nM
IC50 [25]: > 2000 nM
IC50 [26]: > 2000 nM
IC50 [27]: 194 nM
IC50 [28]: 83 nM
IC50 [29]: > 2000 nM
IC50 [30]: > 2000 nM
IC50 [31]: > 2000 nM
IC50 [32]: > 2000 nM
IC50 [33]: > 2000 nM
IC50 [34]: > 2000 nM
IC50 [35]: > 2000 nM
IC50 [36]: > 2000 nM
IC50 [37]: > 2000 nM
IC50 [38]: > 2000 nM
IC50 [39]: > 2000 nM
IC50 [40]: > 2000 nM
IC50 [41]: > 2000 nM
IC50 [42]: > 2000 nM
IC50 [43]: > 2000 nM
IC50 [44]: > 2000 nM
IC50 [45]: > 2000 nM
IC50 [46]: > 2000 nM
IC50 [47]: > 2000 nM
IC50 [48]: > 2000 nM
IC50 [49]: > 2000 nM
IC50 [50]: > 2000 nM
